Source: publication PMC12277314, “Design, synthesis, and anti-inflammatory potential of PROTAC drug molecules based on fondaparinux sodium” (Frontiers in Bioengineering and Biotechnology, 2025)
pKd: −log10 of the molar value. Entries after “also recorded” stand apart in the source; their conditions may differ.

Assays:
[1] = test system: IL-1β release, peripheral blood mononuclear cells (PBMCs); assay: LPS-induced IL-1β release in PBMCs (ELISA); assay type: cell-based, Human; settings: 100 nM-10 μM
Procedure: (§1) Human PBMCs were isolated from buffy coats (procured from Uppsala University Hospital, Sweden) using Ficoll density gradient centrifugation and stored at −150°C. Thawed PBMCs were cultured in Dulbecco’s Modified Eagle Medium (DMEM) supplemented with 10% fetal bovine serum (FBS) and 5% PeSt in a CO2 incubator. Cells were seeded in 24-well plates (0.5–1 × 10^6 cells/well in 1 mL medium). PROTAC analogs and FS were added at 10 μM, 1 μM, and 100 nM. Two setups were employed: one receiving only the compounds, and another in which LPS (20 ng/mL) was added 2 h after compound treatment. After 24 h, supernatants were collected for cytokine quantification by ELISA.
(§2) All quantitative data are presented as mean ± SD. Sample size for each assay was n = 3 biological replicates. For multi-group comparisons, one-way ANOVA followed by Tukey’s post hoc test was used; for two-group comparisons, two-tailed, unpaired Student’s t-test was applied. P < 0.05 was considered significant.

[2] = test system: inflammatory cytokines (IL-1β and TNF-α), PBMCs; assay: LPS-induced cytokine secretion in PBMCs, cytokines overall; assay type: cell-based, Human; settings: 100 nM-10 μM
Procedure: as §1, §2

IL-6 = IL-6 (Homo sapiens, UniProt P05231); assay: SPR binding to immobilized IL-6; settings: CM5 chip, 1:1 binding model, 0.38-12.50 µM analyte
Chain of IL-6 (P05231 30-212, species assumed): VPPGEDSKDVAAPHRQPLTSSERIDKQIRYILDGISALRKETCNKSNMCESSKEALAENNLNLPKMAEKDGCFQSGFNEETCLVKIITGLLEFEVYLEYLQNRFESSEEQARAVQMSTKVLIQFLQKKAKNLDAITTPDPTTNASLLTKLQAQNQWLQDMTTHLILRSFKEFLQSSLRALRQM
Procedure: (§3) SPR was used to evaluate the binding affinity between the PROTAC molecules and the target proteins. Target proteins CCL5 and IL-6 were immobilized on a CM5 sensor chip via amine coupling, with unreacted sites blocked using ethanolamine (pH 8.5). The PROTAC molecules were injected at concentrations ranging from 0.38 µM to 12.50 µM in PBS-P running buffer (0.02 M phosphate buffer, 137 mM NaCl, 2.7 mM KCl, 0.2% DMSO, 0.05% P20, pH 7.4). Each injection lasted 120 s (association phase) followed by a 300-s dissociation phase at a flow rate of 30 μL/min. Data were analyzed using Biacore Insight Evaluation Software with a 1:1 binding model to determine KD values. In addition to the 1:1 Langmuir model, we tested bivalent-analyte and heterogeneous-ligand models. Both alternatives yielded substantially larger residuals and poorer overall fits, confirming the 1:1 Langmuir model as the most suitable for our sensorgram data.
(§4) To comprehensively assess the biological functionality of the PROTAC molecules, binding kinetics with the target proteins CCL5 and IL-6 were investigated using the Biacore 8K^+ system. CCL5 and IL-6—key inflammatory mediators—were immobilized on a CM5 sensor chip (9000 RU) via amine coupling, and kinetic parameters were calculated using a 1:1 binding model.

CCL5 = target: T1, CCL5 (Homo sapiens, UniProt P13501); assay: SPR binding to immobilized CCL5; settings: for pKd: CM5 chip, 1:1 binding model, 0.38-12.50 µM analyte
T1 sequence (P13501 24-91): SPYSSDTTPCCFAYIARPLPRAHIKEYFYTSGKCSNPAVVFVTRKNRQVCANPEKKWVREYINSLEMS
Procedure: as §3, §4

[3] = test system: TNF-α release, peripheral blood mononuclear cells (PBMCs); assay: LPS-induced TNF-α release in PBMCs (ELISA); assay type: cell-based, Human; settings: 100 nM-10 μM
Procedure: as §1, §2

[4] = test system: colonic TNF-α and IL-1β levels; set-up: method as in Xu et al., 2024; settings: murine colitis model; ref Xu et al., 2024; cited from earlier work

Compound | effect on LPS-induced IL-1β release (in words) [1] | effect on LPS-induced cytokine secretion (in words) [2] | pKd (IL-6) | binding to CCL5 (in words) (CCL5; negative control) | pKd (CCL5) | effect on LPS-induced TNF-α (in words) [3] | colonic TNF-α and IL-1β levels [4]
CO[C@H]1O[C@H](COS(=O)(=O)O)[C@@H](O[C@@H]2O[C@@H](C(=O)O)[C@@H](O[C@H]3O[C@H](COS(=O)(=O)O)[C@@H](O[C@@H]4O[C@H](C(=O)O)[C@@H](O[C@H]5O[C@H](COS(=O)(=O)O)[C@@H](O)[C@H](O)[C@H]5NS(=O)(=O)O)[C@H](O)[C@H]4O)[C@H](OS(=O)(=O)O)[C@H]3NS(=O)(=O)O)[C@H](O)[C@H]2OS(=O)(=O)O)[C@H](O)[C@H]1NS(=O)(=O)O [FS, Fondaparinux Sodium] | no effect | did not elicit significant changes | 4.87 | no binding |  |  | 
CO[C@H]1O[C@H](COS(=O)(=O)O)[C@@H](O[C@@H]2O[C@@H](C(=O)NCCCCCCCNc3cccc4c3C(=O)N(C3CCC(=O)NC3=O)C4=O)[C@@H](OC3O[C@H](COS(=O)(=O)O)[C@@H](O[C@@H]4O[C@H](C(=O)NCCCCCCCNc5cccc6c5C(=O)N(C5CCC(=O)NC5=O)C6=O)[C@@H](O[C@H]5O[C@H](COS(=O)(=O)O)[C@@H](O)[C@H](O)[C@H]5NS(=O)(=O)O)[C@H](O)[C@H]4O)[C@H](OS(=O)(=O)O)[C@H]3NS(=O)(=O)O)[C@H](O)[C@H]2OS(=O)(=O)O)[C@H](O)[C@H]1NS(=O)(=O)O (some centres unmarked) [Product 6] | significantly inhibited | significant inhibition; also recorded: concentration-dependent suppression | 5.08 |  | 5.32 |  | 
CO[C@H]1O[C@H](COS(=O)(=O)O)[C@@H](O[C@@H]2O[C@@H](C(=O)NCCCCCc3cccc4c3CN(C3CCC(=O)NC3=O)C4=O)[C@@H](OC3O[C@H](COS(=O)(=O)O)[C@@H](O[C@@H]4O[C@H](C(=O)NCCCCCc5cccc6c5CN(C5CCC(=O)NC5=O)C6=O)[C@@H](O[C@H]5O[C@H](COS(=O)(=O)O)[C@@H](O)[C@H](O)[C@H]5NS(=O)(=O)O)[C@H](O)[C@H]4O)[C@H](OS(=O)(=O)O)[C@H]3NS(=O)(=O)O)[C@H](O)[C@H]2OS(=O)(=O)O)[C@H](O)[C@H]1NS(=O)(=O)O (some centres unmarked) [Product 8] | no significant effect; also recorded: not statistically significant | did not elicit significant changes; also recorded: limited anti-inflammatory activity |  |  | 5.02 | mild inhibition; also recorded: minimal | 
CO[C@H]1O[C@H](COS(=O)(=O)O)[C@@H](O[C@@H]2O[C@@H](C(=O)NCCCCCNc3cccc4c3C(=O)N(C3CCC(=O)NC3=O)C4=O)[C@@H](OC3O[C@H](COS(=O)(=O)O)[C@@H](O[C@@H]4O[C@H](C(=O)NCCCCCNc5cccc6c5C(=O)N(C5CCC(=O)NC5=O)C6=O)[C@@H](O[C@H]5O[C@H](COS(=O)(=O)O)[C@@H](O)[C@H](O)[C@H]5NS(=O)(=O)O)[C@H](O)[C@H]4O)[C@H](OS(=O)(=O)O)[C@H]3NS(=O)(=O)O)[C@H](O)[C@H]2OS(=O)(=O)O)[C@H](O)[C@H]1NS(=O)(=O)O (some centres unmarked) [Product 10] | significantly inhibited | significant inhibitory effect; also recorded: concentration-dependent suppression | 5.81 |  | 4.95 |  | 
O=C(/C=C/C(=O)Nc1ccc(NC(=O)c2ccc([N+](=O)[O-])o2)cc1)NCCCCCCNc1cccc2c1C(=O)N(C1CCC(=O)NC1=O)C2=O (centres unmarked) [SP23] |  |  |  |  |  |  | reduced
